In US6706725B1, “Vitamin D analogues” (Galderma Research & Development, S.N.C., priority 1999, dated 2004):

These compounds were tested against T1, human VDR receptor (Homo sapiens, UniProt P11473) (assay: VDR agonist activity by co-transfection in HeLa cells (human VDR expression vector + p240Hase-CAT reporter, CAT ELISA)). Conditions: HeLa cell line co-transfected with human VDR and rat 24-hydroxylase promoter-CAT reporter; treatment for 18 hours; read-out: AC 50 (dose required to achieve 50% of the maximum activity of the product).
T1 construct: expressed in transfected cells; host or cells: HeLa
T1 sequence (P11473 1-427): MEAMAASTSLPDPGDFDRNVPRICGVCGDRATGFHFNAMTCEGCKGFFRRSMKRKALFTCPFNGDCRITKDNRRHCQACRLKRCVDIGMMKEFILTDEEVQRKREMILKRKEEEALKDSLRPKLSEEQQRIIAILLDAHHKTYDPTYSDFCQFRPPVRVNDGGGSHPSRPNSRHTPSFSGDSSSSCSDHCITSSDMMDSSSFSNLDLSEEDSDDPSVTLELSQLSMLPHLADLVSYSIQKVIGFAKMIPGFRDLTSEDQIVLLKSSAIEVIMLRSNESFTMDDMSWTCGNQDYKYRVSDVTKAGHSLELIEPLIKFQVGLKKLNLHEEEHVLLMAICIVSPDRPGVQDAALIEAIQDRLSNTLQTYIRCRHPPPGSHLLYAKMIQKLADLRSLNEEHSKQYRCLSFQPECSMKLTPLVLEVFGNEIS
Type: cell-based
Method: By way of example, the VDR agonist activity can be tested on the HeLa cell line by co-transfection with an expression vector for the human VDR receptor and the reporter plasmid p240Hase-CAT which contains the region −1399 to +76 of rat 24-hydroxylase promoter, cloned upstream of the frame encoding the chloramphenicol-acetyl-transferase (CAT) gene. 18 hours after co-transfection, the test product is added to the medium. After treatment for 18 hours, assay of the CAT activity in the cell lysates is carried out by an ELISA test. The results are expressed as percentages of the effect normally observed with 10^−7M calcitriol.
The agonist activity can also be characterized in the co-transfection system, by determining the dose required to reach 50% of the maximum activity of the product (AC50).
The VDR agonist activity was tested on the HeLa cell line, by co-transfection of an expression vector of the human VDR receptor and of the reporter plasmid p240Hase-CAT which contains the region −1399 to +76 of the rat 24-hydroxylase promoter, cloned upstream of the coding frame of the chloramphenicol-acetyl-transferase (CAT) gene. 18 hours after co-transfection, the test product is added to the medium. After treatment for 18 hours, the CAT activity of the cell lysates is assayed by an ELISA test. The results are expressed as a percentage of the effect normally observed with 10^−7 M of calcitriol.
The agonist activity was characterized in this co-transfection system by determining the dose required to achieve 50% of the maximum activity of the product (AC50).

Structure (SMILES) | AC50
CCC(O)(CC)CC/C=C(\C)c1ccc(COc2ccc(CO)c(CO)c2)s1 [Example 1, (E)-7-[5-(3,4-bis-Hydroxymethyl-phenoxymethyl)-2-thienyl]-3-ethyloct-6-en-3-ol] | 192 nM
CCC(O)(CC)CC/C=C(\C)c1cc(COc2ccc(CO)c(CO)c2)cs1 [Example 2, (E)-7-[4-(3,4-bis-Hydroxymethyl-phenoxymethyl)-2-thienyl]-3-ethyloct-6-en-3-ol] | 267 nM
CC/C(=C\CCC(O)(CC)CC)c1cccc(COc2ccc(CO)c(CO)c2)n1 [Example 4, (E)-7-[6-(3,4-bis-Hydroxymethyl-phenoxymethyl)-2-pyridyl]-3-ethylnon-6-en-3-ol] | 294 nM
CC/C(=C\CCC(O)(CC)CC)c1ccc(COc2ccc(CO)c(CO)c2)s1 [Example 6, (E)-7-[5-(3,4-bis-Hydroxymethyl-phenoxymethyl)-2-thienyl]-3-ethylnon-6-en-3-ol] | 61 nM
CC/C(=C\C=C\C(O)(CC)CC)c1ccc(COc2ccc(CO)c(CO)c2)s1 [Example 7, (4E,6E)-7-[5-(3,4-bis-Hydroxymethyl-phenoxymethyl)-2-thienyl]-3-ethylnona-4,6-dien-3-ol] | 17 nM
CC/C(=C\CCC(O)(CC)CC)c1ccc(CCc2ccc(CO)c(CO)c2)s1 [Example 8, (E)-7-{5-[2-(3,4-bis-Hydroxymethyl-phenyl)ethyl]-2-thienyl}-3-ethylnon-6-en-3-ol] | 29 nM
CC/C(=C\CCC(O)(CC)CC)c1cc(CCc2ccc(CO)c(CO)c2)cs1 [Example 10, (E)-7-[4-[2-(3,4-bis-Hydroxymethyl-phenyl)ethyl]-2-thienyl)-3-ethylnon-6-en-3-ol] | 23 nM
CC/C(=C\CCC(O)(CC)CC)c1csc(COc2ccc(CO)c(CO)c2)c1 [Example 12, (E)-7-[5-(3,4-bis-Hydroxymethyl-phenoxymethyl)-3-thienyl]-3-ethylnon-6-en-3-ol] | 655 nM
CC/C(=C\C=C\C(O)(C(F)(F)F)C(F)(F)F)c1ccc(COc2ccc(CO)c(CO)c2)s1 [Example 13, (3E,5E)-6-[5-(3,4-bis-Hydroxymethyl-phenoxymethyl)-2-thienyl]-1,1,1-trifluoro-2-trifluoromethylocta-3,5-dien-2-ol] | 78 nM
